Like-named read-outs stand apart in the source and are kept apart here.
How the values were obtained:
[1] = molecular target: recombinant human NF-kappaB-inducing kinase (NIK/MAP3K14) (Homo sapiens, UniProt Q99558); assay: Inhibition of auto-phosphorylation of recombinant human NIK/MAP3K14 activity (AlphaScreen), Biological Assay A; type: biochemical; settings: averaged values over all measurements on all batches
Protocol: Inhibition of Auto-Phosphorylation of Recombinant Human NF-kappaB-Inducing Kinase (NIK/MAP3K14) Activity (AlphaScreen®)
NIK/MAP3K14 auto-phosphorylation activity was measured using the AlphaScreen® (αscreen) format (Perkin Elmer). All compounds tested were dissolved in dimethyl sulfoxide (DMSO) and further dilutions were made in assay buffer. Final DMSO concentration was 1% (v/v) in assays. Assay buffer was 50 mM Tris pH 7.5 containing 1 mM EGTA (ethylene glycol tetraacetic acid), 1 mM DTT (dithiothreitol), 0.1 mM Na3VO4, 5 mM MgCl2, 0.01% Tween® 20. Assays were carried out in 384 well Alphaplates (Perkin Elmer). Incubations consisted of compound, 25 microM Adenosine-5′-triphosphate (ATP), and 0.2 nM NIK/MAP3K14. Incubations were initiated by addition of GST-tagged NIK/MAP3K14 enzyme, carried out for 1 h at 25° C. and terminated by addition of stop buffer containing anti-phospho-IKK Ser176/180 antibody. Protein A Acceptor and Glutathione-Donor beads were added before reading using an EnVision® Multilabel Plate Reader (Perkin Elmer). Signal obtained in the wells containing blank samples was subtracted from all other wells and IC50's were determined by fitting a sigmoidal curve to % inhibition of control versus Log10 compound concentration.

[2] = test system: KMS12-BM (NIK WT) multiple myeloma cells; assay: Antiproliferative activity on KMS12-BM multiple myeloma cells (CellTiter-Glo, 96 hr), Biological Assay C; type: cell-based, human; settings: averaged values, read-out: KMS-12 Proliferation inhibition (IC50 (nM))
Protocol: (§1) Determination of Antiproliferative Activity on JJN-3 (NIK Translocated) and KMS12-BM (NIK WT) Multiple Myeloma Cells
(§2) All compounds tested were dissolved in DMSO and further dilutions were made in culture medium. Final DMSO concentration was 0.3% (v/v) in cell proliferation assays. Viability was assessed using CellTiter-Glo cell viability assay kit (Promega). The human JJN-3 and KMS12-BM cells (DSMZ) were cultured in RPMI 1640 medium supplemented with 2 mM L-glutamine, and 10% fetal calf serum (PAA). Cells were routinely kept as suspension cells at 37° C. in a humidified 5% CO2 atmosphere. Cells were passaged at a seeding density of 0.2×10^6/ml twice a week. Cells were seeded in black tissue culture treated 96-well plates (Perkin Elmer). Densities used for plating ranged from 15000 (JJN3) to 20000 (KMS12BM) cells per well in a total volume of 135 μl medium. Drugs and/or solvents were added (15 μl) to a final volume of 150 μl. Following 96 hr of treatment, plates were removed from the incubator and allowed to equilibrate to room temperature for approx 10 min. 75 μl CellTiter-Glo reagent was added to each well that was then covered (Perkin Elmer Topseal) and shaken on plate shaker for 10 min. Luminescence was measured on a HTS Topcount (Perkin Elmer).
(§3) Within an experiment, the results for each treatment were the mean of 2 replicate wells. For initial screening purposes, compounds were tested using a 9 point dilution curve (serial 1:3 dilutions). For each experiment, controls (containing no drug) and a blank incubation (containing cells read at the time of compound addition) were run in parallel. The blank value was subtracted from all control and sample values. For each sample, the mean value for cell growth (in relative light units) was expressed as a percentage of the mean value for cell growth of the control.

[3] = test system: JJN-3 (NIK translocated) multiple myeloma cells; assay: Antiproliferative activity on JJN-3 multiple myeloma cells (CellTiter-Glo, 96 hr), Biological Assay C; type: cell-based, human; settings: JJN-3 (NIK translocated) cells, averaged values, read-out: JJN-3 Proliferation inhibition (IC50 (nM))
Protocol: as §1, §2, §3

recombinant human NF-kappaB-inducing kinase (NIK/MAP3K14), sequence (Q99558 whole entry): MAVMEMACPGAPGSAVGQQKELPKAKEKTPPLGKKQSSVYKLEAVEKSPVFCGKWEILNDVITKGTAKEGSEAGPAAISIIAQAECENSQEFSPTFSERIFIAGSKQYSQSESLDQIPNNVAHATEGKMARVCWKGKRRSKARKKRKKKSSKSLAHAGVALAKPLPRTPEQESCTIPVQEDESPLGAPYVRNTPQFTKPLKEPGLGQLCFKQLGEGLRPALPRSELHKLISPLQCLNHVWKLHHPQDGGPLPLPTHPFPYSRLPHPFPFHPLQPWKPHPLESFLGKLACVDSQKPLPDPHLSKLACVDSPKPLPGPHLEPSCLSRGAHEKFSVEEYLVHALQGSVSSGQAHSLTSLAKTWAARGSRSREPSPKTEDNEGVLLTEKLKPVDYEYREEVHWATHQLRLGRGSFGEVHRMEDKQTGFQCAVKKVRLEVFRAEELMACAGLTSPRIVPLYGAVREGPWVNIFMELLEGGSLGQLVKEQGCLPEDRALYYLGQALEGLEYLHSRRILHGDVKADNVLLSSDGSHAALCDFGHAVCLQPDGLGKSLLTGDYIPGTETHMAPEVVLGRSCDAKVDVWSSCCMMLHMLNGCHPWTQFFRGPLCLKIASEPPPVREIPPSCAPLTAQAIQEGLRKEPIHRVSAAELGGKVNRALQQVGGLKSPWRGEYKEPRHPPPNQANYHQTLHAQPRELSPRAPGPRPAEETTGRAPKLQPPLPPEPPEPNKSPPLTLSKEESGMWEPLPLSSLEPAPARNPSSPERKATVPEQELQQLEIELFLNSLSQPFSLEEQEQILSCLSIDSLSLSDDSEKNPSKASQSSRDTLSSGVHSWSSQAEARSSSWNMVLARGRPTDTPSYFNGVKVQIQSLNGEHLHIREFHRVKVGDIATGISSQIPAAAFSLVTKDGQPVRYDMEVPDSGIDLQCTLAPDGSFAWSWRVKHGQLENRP

SMILES	IC50 [1]	IC50 ([2]; Homo sapiens, KMS-12-BM, 96 h)	IC50 ([3]; Homo sapiens, JJN-3, 96 h)	melting point	IC50 [2]	IC50 [3]
COC(=O)c1cc(Nc2nccc(-c3cc(C#N)c4c(c3)C(C)(CO)CN4)n2)cc(C(F)(F)F)c1 (stereo not drawn) [Compound 77]	46.8 nM	~2460 nM	126 nM	–	–	–
CNCCOc1ccc(Cl)cc1Nc1nccc(-c2cc(C#N)c3c(c2)C(C)(C)CN3)n1 [Compound 109]	53.7 nM	–	676 nM	152 °C	–	–
COc1cc(OCCN2CCN(C)CC2)c(Cl)cc1Nc1nccc(-c2cc(C#N)c3c(c2)C(C)(C)CN3)n1 [Compound 95]	9.3 nM	> 10000 nM	129 nM	–	–	–
CN(C)C(=O)c1ccc(Cl)cc1Nc1nccc(-c2cc(C#N)c3c(c2)C(C)(CO)CN3)n1 (stereo not drawn) [Compound 56]	126 nM	> 10000 nM	1740 nM	170 °C	–	–
CC(C)c1ccc(COc2cccc(Nc3nccc(-c4cc(C#N)c5c(c4)C(C)(CO)CN5)n3)c2)cc1 (stereo not drawn) [Compound 42]	309 nM	> 10000 nM	4270 nM	183 °C	–	–
CC1(CO)CNc2c(C#N)cc(-c3ccnc(Nc4cc(C(F)(F)F)ccc4OCCO)n3)cc21 (stereo not drawn) [Compound 38]	30.9 nM	> 10000 nM	182 nM	190 °C	–	–
COCc1cc(OC)c(Nc2nccc(-c3cc(C#N)c4c(c3)C(C)(C)CN4)n2)cc1Cl [Compound 88]	85.1 nM	> 10000 nM	178 nM	–	–	–
COCCOc1ccc(Cl)cc1Nc1nccc(-c2cc(C#N)c3c(c2)[C@](C)(CO)CN3)n1 [Compound 57]	50.1 nM	> 10000 nM	> 10000 nM	188 °C	–	–
COCCN1CCC(c2cc(OC)c(Nc3nccc(-c4cc(C#N)c5c(c4)C(C)(C)CN5)n3)cc2C)CC1 [Compound 94]	9.8 nM	> 10000 nM	166 nM	–	–	–
COCCN1CCN(c2cc(OC)c(Nc3nccc(-c4cc(C#N)c5c(c4)C(C)(C)CN5)n3)cc2Cl)CC1 [Compound 89]	20.9 nM	> 10000 nM	~100 nM	–	–	–
COc1cc(C(=O)NC2CC(F)(F)C2)c(Cl)cc1Nc1nccc(-c2cc(C#N)c3c(c2)C(C)(C)CN3)n1 [Compound 118]	25.7 nM	> 10000 nM	933 nM	–	–	–
COc1cc(N2CCN(C(C)C)CC2)c(Cl)cc1Nc1nccc(-c2cc(C#N)c3c(c2)C(C)(C)CN3)n1 [Compound 93]	11.5 nM	> 10000 nM	83 nM	–	–	–
COc1cc(N2CCN(C3CC3)CC2)c(Cl)cc1Nc1nccc(-c2cc(C#N)c3c(c2)C(C)(C)CN3)n1 [Compound 98]	129 nM	> 10000 nM	105 nM	–	–	–
C[C@]1(CO)CNc2c(C#N)cc(-c3ccnc(Nc4ccccc4P(C)(C)=O)n3)cc21 [Compound 62]	912 nM	–	–	228 °C	–	–
COc1cc(C(=O)N2CC3CC(C2)C3O)c(Cl)cc1Nc1nccc(-c2cc(C#N)c3c(c2)C(C)(C)CN3)n1 (stereo not drawn) [Compound 120]	15.5 nM	> 10000 nM	25 nM	–	–	–
CC(C)Oc1ccc(C(F)(F)F)cc1Nc1nccc(-c2cc(C#N)c3c(c2)C(C)(CO)CN3)n1 (stereo not drawn) [Compound 76]	186 nM	> 10000 nM	2340 nM	–	–	–
COCCOc1cc(C2CCOCC2)ccc1Nc1nccc(-c2cc(C#N)c3c(c2)[C@@](C)(CO)CN3)n1 [Compound 61]	11 nM	> 10000 nM	186 nM	–	–	–
COc1cc(S(C)(=O)=O)c(F)cc1Nc1nccc(-c2cc(C#N)c3c(c2)C(C)(C)CN3)n1 [Compound 96]	9.1 nM	> 10000 nM	~81 nM	–	–	–
CC1(C)CNc2c(C#N)cc(-c3ccnc(Nc4cc(Cl)ccc4S(C)(=O)=O)n3)cc21 [Compound 90]	219 nM	> 10000 nM	> 10000 nM	–	–	–
COc1cc(N2CCC(O)C2)c(Cl)cc1Nc1nccc(-c2cc(C#N)c3c(c2)C(C)(C)CN3)n1 (stereo not drawn) [Compound 97]	45.7 nM	4360 nM	59 nM	–	–	–
COc1cc(N2CCC(OC)CC2)c(Cl)cc1Nc1nccc(-c2cc(C#N)c3c(c2)C(C)(C)CN3)n1 [Compound 92]	138 nM	> 10000 nM	389 nM	–	–	–

Stronger by IC50 [1], values ahead:

IC50 [1]	IC50 ([2]; Homo sapiens, KMS-12-BM, 96 h)	IC50 ([3]; Homo sapiens, JJN-3, 96 h)	melting point	IC50 [2]	IC50 [3]	SMILES
5.3 nM	> 10000 nM	2340 nM	295 °C	–	–	COc1ccc(C#N)cc1Nc1nccc(-c2cc(C#N)c3c(c2)C(C)(CO)CN3)n1 (stereo not drawn) [Compound 31]
4.9 nM	> 10000 nM	1020 nM	157 °C	–	–	COCCOc1cc(F)ccc1Nc1nccc(-c2cc(C#N)c3c(c2)[C@@](C)(CO)CN3)n1 [Compound 69]
8.7 nM	> 10000 nM	155 nM	236 °C	–	–	CC1(CO)CNc2c(C#N)cc(-c3ccnc(Nc4cc(Cl)ccc4OCCO)n3)cc21 (stereo not drawn) [Compound 40]
7.2 nM	> 10000 nM	148 nM	210 °C	–	–	C[C@]1(CO)CNc2c(C#N)cc(-c3ccnc(Nc4cc(C#N)ccc4C4CC4)n3)cc21 [Compound 71]
8.3 nM	> 10000 nM	219 nM	168 °C	–	–	CNCCOc1ccc(Cl)cc1Nc1nccc(-c2cc(C#N)c3c(c2)C(C)(CO)CN3)n1 (stereo not drawn) [Compound 44]
3.7 nM	> 10000 nM	255 nM	195 °C	–	–	Cc1ccc(C#N)cc1Nc1nccc(-c2cc(C#N)c3c(c2)C(C)(CO)CN3)n1 (stereo not drawn) [Compound 26]
4 nM	> 10000 nM	170 nM	274 °C	–	–	CC1(CO)CNc2c(C#N)cc(-c3ccnc(Nc4cc(C#N)ccc4Cl)n3)cc21 (stereo not drawn) [Compound 32]
6.8 nM	–	–	–	> 10000 nM	162 nM	COc1cc(C(=O)NC2CCC(O)C2)c(Cl)cc1Nc1nccc(-c2cc(C#N)c3c(c2)C(C)(C)CN3)n1 (stereo not drawn) [Compound 116]
4.7 nM	1550 nM	19 nM	–	–	–	COc1cc(C(=O)N2CC3C(CO)C3C2)c(Cl)cc1Nc1nccc(-c2cc(C#N)c3c(c2)C(C)(C)CN3)n1 (stereo not drawn) [Compound 117]
7.2 nM	> 10000 nM	~107 nM	–	–	–	CCN1CCN(c2cc(C)c(Nc3nccc(-c4cc(C#N)c5c(c4)C(C)(C)CN5)n3)cc2Cl)CC1 [Compound 91]
4.7 nM	~4470 nM	35 nM	–	–	–	COc1cc(C(=O)N2CC[C@@H]3CNC[C@@H]32)c(Cl)cc1Nc1nccc(-c2cc(C#N)c3c(c2)C(C)(C)CN3)n1 (relative stereo) [Compound 122]
6.9 nM	–	–	252 °C	–	–	CNC(=O)c1ccc(C)c(Nc2ncnc(-c3cc(C#N)c4c(c3)[C@@](C)(CO)CN4)n2)c1 [Compound 214]
7.1 nM	1380 nM	28 nM	–	–	–	COc1cc(C(=O)N2CCCC(O)CC2)c(Cl)cc1Nc1nccc(-c2cc(C#N)c3c(c2)C(C)(C)CN3)n1 (stereo not drawn) [Compound 119]
1.6 nM	437 nM	525 nM	–	–	–	COc1cc(C(=O)NC2CNCC2O)c(Cl)cc1Nc1nccc(-c2cc(C#N)c3c(c2)C(C)(C)CN3)n1 (mixture of isomers) [Compound 124]
4.9 nM	> 10000 nM	166 nM	–	–	–	COc1cc(C(=O)NC2CCC(O)C2)c(Cl)cc1Nc1nccc(-c2cc(C#N)c3c(c2)C(C)(C)CN3)n1 (stereo not drawn) [Compound 115]
4.2 nM	> 10000 nM	193 nM	–	–	–	COc1cc(C(=O)N2CC(O)C2)c(Cl)cc1Nc1nccc(-c2cc(C#N)c3c(c2)C(C)(C)CN3)n1 [Compound 110]

— patent US11180487B2, “Substituted cyanoindoline derivatives as NIK inhibitors” (Janssen Pharmaceutica NV, priority 2016, dated 2021)
